# Experimental data: patent US4066510A, “Assay for mutagenesis in diploid human lymphoblasts” (Massachusetts Institute of Technology, priority 1976, dated 1978)
# Where two headings read alike, the source gives them in different places.
# Tests used:
# [1] = system: Mutant Type (HGPRT-) clones (6TG^R); test: cells; details: Homo sapiens
# Protocol: Cell survival was measured by a soft-agar plating procedure that was originally devised for mouse myeloma cells and latter extended to human lymphoblasts. […] For plating efficiencies, confluent feeder layers were used of a fibroblast strain derived from a patient afflicted with the Lesch-Nyhan syndrome. […] The feeder layer was overlayed with a separation layer formed from 2.5 ml of RPMI 1640 medium containing 0.25% agarose (M.C.I. Biomedical), which was allowed to gel at room temperature (10 min). The cells were suspended in 2.5 ml of 0.25% agarose-RPMI 1640 layered over the separator layer; this layer was then allowed to gel before the plates were incubated at 37° in humidified air containing 5% CO2. On the following day, 1.0 ml of RPMI 1640 medium was placed on each plate, and another 1.0 ml was added 6 days later. Although microscopic colonies could be counted on day 7, 14 days were allowed in order to permit an increase in colony size to about 0.4 mm because this permitted the use of an automatic colony counter (Artek Systems). Cell counts in suspension were accomplished by counting samples on an electronic particle counter (Coulter Electronics).
# HGPRT activity and plating efficiencies as a function of 6TG concentration for clones sensitive (6TG^S) or resistant (6TG^R) to 10 μg/ml of 6TG were determined.
# Plating efficiencies were determined following the procedure of Example 1.
# [2] = system: human lymphoblast line (MIT-2)
# in vitro = details: human, mit-2 lymphoblasts
# [3] = Stability of MNU solution (electronic absorption spectra); format: physicochemical; details: PBS, pH 7.2, kept cold
# Protocol: Crystalline form methylnitrosourea (MNU) was dessicated and preweighed into aliquots. The quantitative electronic absorption spectra of one of these preweighed aliquots dissolved in phosphate buffered saline (PBS), pH7.2, was determined and found to remain stable for more than 60 minutes when kept cold. Fresh solutions were prepared 10 minutes prior to dosing by dissolving preweighed aliquots in PBS and filter-sterilizing the solutions. They were then used immediately for dosing cultures and simultaneously characterized by electronic absorbance spectra.
# 6TG^S and 6TG^R clones = test: Dose-dependent sensitivity to MNU of 6TG^R clones compared with wild-type (6TG^S)
# HGPRT = details: linear with time over 60 min, 5 × 10^6 cells/ml in the sonicate
# Protocol: HGPRT activity was determined using a modification of a published technique.
# The reaction was quenched by addition of 0.025 ml of 50 mM EDTA at 0°. DE-81 2.5-cm disks (DEAE cellulose; Whatman) were spotted with 0.025 ml of the quenched reaction mixture and allowed to dry at 25°. Disks were rinsed at 25° first with 40 ml of 1 mM ammonium formate and then with 20 ml of ethanol in a standard filter-holding chimney (Millipore). Disks were dried for 10 min at 60° in scintillation vials, to which 15 ml of Aquasol (New England Nuclear) were added after the vials had cooled. The vials were then counted on a Packard 2002 scintillation counter. With this system, the overall efficiency of counting phosphorylated purines bound to DE-81 filters was 4.10± 0.03% (S.E., n = 7).
smiles,measurement,setting,value
"Nc1nc2nc[nH]c2c(=S)[nH]1 [6TG, 6-thioguanine]",viability at 5 µg/mL,"[1]; P1(0.5), read-out: RELATIVE SURVIVING FRACTION, clone P10, 5 μg/ml 6TG",81%
same,viability at 5 µg/mL,"[1]; read-out: RELATIVE SURVIVING FRACTION, clone B2, 5 μg/ml 6TG",94%
same,viability at 10 µg/mL,"[1]; read-out: RELATIVE SURVIVING FRACTION, clone B2, 10 μg/ml 6TG",100%
same,viability at 20 µg/mL,"[1]; read-out: RELATIVE SURVIVING FRACTION, clone B2, 20 μg/ml 6TG",71%
same,viability at 5 µg/mL,"[1]; read-out: RELATIVE SURVIVING FRACTION, clone B4, 5 μg/ml 6TG",160%
same,viability at 10 µg/mL,"[1]; read-out: RELATIVE SURVIVING FRACTION, clone B4, 10 μg/ml 6TG",150%
same,viability at 20 µg/mL,"[1]; read-out: RELATIVE SURVIVING FRACTION, clone B4, 20 μg/ml 6TG",110%
same,viability at 5 µg/mL,"[1]; read-out: RELATIVE SURVIVING FRACTION, clone B6, 5 μg/ml 6TG",110%
same,viability at 10 µg/mL,"[1]; read-out: RELATIVE SURVIVING FRACTION, clone B6, 10 μg/ml 6TG",82%
same,viability at 20 µg/mL,"[1]; read-out: RELATIVE SURVIVING FRACTION, clone B6, 20 μg/ml 6TG",76%
same,viability at 5 µg/mL,"[1]; read-out: RELATIVE SURVIVING FRACTION, clone B7, 5 μg/ml 6TG",120%
same,viability at 10 µg/mL,"[1]; read-out: RELATIVE SURVIVING FRACTION, clone B7, 10 μg/ml 6TG",66%
same,viability at 20 µg/mL,"[1]; read-out: RELATIVE SURVIVING FRACTION, clone B7, 20 μg/ml 6TG",57%
same,viability at 5 µg/mL,"[1]; read-out: RELATIVE SURVIVING FRACTION, clone B8, 5 μg/ml 6TG",100%
same,viability at 10 µg/mL,"[1]; read-out: RELATIVE SURVIVING FRACTION, clone B8, 10 μg/ml 6TG",93%
same,viability at 20 µg/mL,"[1]; read-out: RELATIVE SURVIVING FRACTION, clone B8, 20 μg/ml 6TG",80%
same,viability at 5 µg/mL,"[1]; read-out: RELATIVE SURVIVING FRACTION, clone B9, 5 μg/ml 6TG",110%
same,viability at 10 µg/mL,"[1]; read-out: RELATIVE SURVIVING FRACTION, clone B9, 10 μg/ml 6TG",120%
same,viability at 20 µg/mL,"[1]; read-out: RELATIVE SURVIVING FRACTION, clone B9, 20 μg/ml 6TG",68%
same,viability at 5 µg/mL,"[1]; read-out: RELATIVE SURVIVING FRACTION, clone B13, 5 μg/ml 6TG",86%
same,viability at 10 µg/mL,"[1]; read-out: RELATIVE SURVIVING FRACTION, clone B13, 10 μg/ml 6TG",100%
same,viability at 20 µg/mL,"[1]; read-out: RELATIVE SURVIVING FRACTION, clone B13, 20 μg/ml 6TG",45%
same,viability at 5 µg/mL,"[1]; read-out: RELATIVE SURVIVING FRACTION, clone B15, 5 μg/ml 6TG",71%
same,viability at 10 µg/mL,"[1]; read-out: RELATIVE SURVIVING FRACTION, clone B15, 10 μg/ml 6TG",87%
same,viability at 20 µg/mL,"[1]; read-out: RELATIVE SURVIVING FRACTION, clone B15, 20 μg/ml 6TG",37%
same,viability at 5 µg/mL,"[1]; read-out: RELATIVE SURVIVING FRACTION, clone B17, 5 μg/ml 6TG",110%
same,viability at 10 µg/mL,"[1]; read-out: RELATIVE SURVIVING FRACTION, clone B17, 10 μg/ml 6TG",140%
same,viability at 20 µg/mL,"[1]; read-out: RELATIVE SURVIVING FRACTION, clone B17, 20 μg/ml 6TG",160%
same,viability at 5 µg/mL,"[1]; read-out: RELATIVE SURVIVING FRACTION, clone B20, 5 μg/ml 6TG",90%
same,viability at 10 µg/mL,"[1]; read-out: RELATIVE SURVIVING FRACTION, clone B20, 10 μg/ml 6TG",83%
same,viability at 20 µg/mL,"[1]; read-out: RELATIVE SURVIVING FRACTION, clone B20, 20 μg/ml 6TG",51%
same,viability at 10 µg/mL,"[1]; read-out: RELATIVE SURVIVING FRACTION, clone D3, 10 μg/ml 6TG",71%
same,viability at 20 µg/mL,"[1]; read-out: RELATIVE SURVIVING FRACTION, clone D3, 20 μg/ml 6TG",73%
same,viability at 5 µg/mL,"[1]; read-out: RELATIVE SURVIVING FRACTION, clone P1, 5 μg/ml 6TG",112%
same,viability at 10 µg/mL,"[1]; read-out: RELATIVE SURVIVING FRACTION, clone P1, 10 μg/ml 6TG",75%
same,viability at 20 µg/mL,"[1]; read-out: RELATIVE SURVIVING FRACTION, clone P1, 20 μg/ml 6TG",86%
same,viability at 5 µg/mL,"[1]; read-out: RELATIVE SURVIVING FRACTION, clone P2, 5 μg/ml 6TG",173%
same,viability at 10 µg/mL,"[1]; read-out: RELATIVE SURVIVING FRACTION, clone P2, 10 μg/ml 6TG",121%
same,viability at 20 µg/mL,"[1]; read-out: RELATIVE SURVIVING FRACTION, clone P2, 20 μg/ml 6TG",94%
same,viability at 5 µg/mL,"[1]; read-out: RELATIVE SURVIVING FRACTION, clone P6, 5 μg/ml 6TG",103%
same,viability at 10 µg/mL,"[1]; read-out: RELATIVE SURVIVING FRACTION, clone P6, 10 μg/ml 6TG",97%
same,viability at 20 µg/mL,"[1]; read-out: RELATIVE SURVIVING FRACTION, clone P6, 20 μg/ml 6TG",67%
same,viability at 5 µg/mL,"[1]; read-out: RELATIVE SURVIVING FRACTION, clone P7, 5 μg/ml 6TG",80%
same,viability at 10 µg/mL,"[1]; read-out: RELATIVE SURVIVING FRACTION, clone P7, 10 μg/ml 6TG",60%
same,viability at 20 µg/mL,"[1]; read-out: RELATIVE SURVIVING FRACTION, clone P7, 20 μg/ml 6TG",54%
same,viability at 5 µg/mL,"[1]; read-out: RELATIVE SURVIVING FRACTION, clone P9, 5 μg/ml 6TG",86%
same,viability at 10 µg/mL,"[1]; read-out: RELATIVE SURVIVING FRACTION, clone P9, 10 μg/ml 6TG",45%
same,viability at 20 µg/mL,"[1]; read-out: RELATIVE SURVIVING FRACTION, clone P9, 20 μg/ml 6TG",22%
same,viability at 10 µg/mL,"[1]; read-out: RELATIVE SURVIVING FRACTION, clone P10, 10 μg/ml 6TG",41%
same,viability at 20 µg/mL,"[1]; read-out: RELATIVE SURVIVING FRACTION, clone P10, 20 μg/ml 6TG",30%
same,viability at 5 µg/mL,"[1]; read-out: RELATIVE SURVIVING FRACTION, clone P11, 5 μg/ml 6TG",100%
same,viability at 10 µg/mL,"[1]; read-out: RELATIVE SURVIVING FRACTION, clone P11, 10 μg/ml 6TG",55%
same,viability at 20 µg/mL,"[1]; read-out: RELATIVE SURVIVING FRACTION, clone P11, 20 μg/ml 6TG",24%
same,viability at 5 µg/mL,"[1]; read-out: RELATIVE SURVIVING FRACTION, clone P15, 5 μg/ml 6TG",87%
same,viability at 10 µg/mL,"[1]; read-out: RELATIVE SURVIVING FRACTION, clone P15, 10 μg/ml 6TG",58%
same,viability at 20 µg/mL,"[1]; read-out: RELATIVE SURVIVING FRACTION, clone P15, 20 μg/ml 6TG",27%
same,viability at 5 µg/mL,"[1]; read-out: RELATIVE SURVIVING FRACTION, clone P18, 5 μg/ml 6TG",55%
same,viability at 10 µg/mL,"[1]; read-out: RELATIVE SURVIVING FRACTION, clone P18, 10 μg/ml 6TG",62%
same,viability at 20 µg/mL,"[1]; read-out: RELATIVE SURVIVING FRACTION, clone P18, 20 μg/ml 6TG",45%
"CCOS(C)(=O)=O [EMS, ethyl methane sulphonate]",EST. INITIAL GROWTH DELAY,[2],0
same,viability at 24 h,in vitro,0.12%
"CN(N=O)C(N)=O [MNU, methylnitrosourea]",stability of electronic absorption spectrum in solution,[3],more than 60 minutes
same,EST. INITIAL GROWTH DELAY,[2],0
same,"absolute plating efficiency in the absence of 6TG, stable maximum",[2],about 0.28 clones observed/particle plated
same,population increase before the culture's apparent cessation of growth,[2],about 2.25 times
same,viability at 24 h,in vitro,0.1%
same,survival fraction of one 6TG^R clone,"6TG^S and 6TG^R clones; 1 6TG^R clone, relatively high concentration of MNU",high survival fraction
same,"MNU toxicity, 6TG^S versus 6TG^R clones",6TG^S and 6TG^R clones; 4 6TG^S and 4 6TG^R clones,the average behavior of the two groups was virtually identical
O=c1[nH]cnc2nc[nH]c12 [hypoxanthine],phosphoribosylation velocity,HGPRT,6.4 ± 0.4 mmoles of hypoxanthine/min
